Data: patent US20200061087A1, “Inhibiting the Fungal Cell-Surface Phospate Transporter PHO84” (Children's Medical Center Corporation, priority 2017, published 2020)

Tests used:
[1] = tested on: C. albicans wild type PHO84/PHO84 and pho84/pho84 null cells; test: Growth curves in liquid SC medium (OD600) during exposure to Pho84 inhibitors; format: cell-based, Candida albicans; conditions: wild type vs pho84−/− null; 1 and 4 mM PAA or 200 and 400 μM foscarnet; SC with 0.22 or 11 mM KH2PO4, 30° C.; FIG. 10A, B
Method: FIGS. 10A-10D depict data showing that Foscarnet inhibits Pho84 in competition with Pi. Wild type PHO84/PHO84 (+/+, dark blue) (JKC915) and pho84/pho84 null (−/−, light blue) (JKC1450) cells were exposed to 1 and 4 mM PAA (FIG. 10A) or 200 and 400 μM foscarnet (FIG. 10B), and growth in SC medium with 0.22 mM or 11 mM KH2PO4 at 30° C. was monitored automatically every 15 minutes. FIGS. 10A and 10B are representative of 3 biological replicates; error bars show SD. FIG. 10C depicts a filamentation assay: in order to maximize reproducibility between replicate experiments, cells of wild type strain SC5314 were suspended in 0.9% NaCl to an OD600 of 0.1; then 3 μl of the suspension was spotted at equidistant points, using a template, around a Spider agar plate containing vehicle or 500 μM foscarnet. Spot edges were imaged to show the length and density of filaments extending from the edge of the spot into the agar medium. Scale bar 1 mm. […] OD600 was monitored automatically every 15 minutes. […]
For cell dilutions spotted onto agar media as previously described (20), saturated overnight cultures were diluted in 5-fold steps from an OD600 of 0.5. […] For growth assays including those during drug exposure, OD600 readings were obtained every 15 min in a plate reader and standard deviations of 3 technical replicates were calculated and graphed in Graphpad Prism. […]

[2] = tested on: TORC1 (Rps6 phosphorylation); test: Western blot for phosphorylated ribosomal protein S6 (P-S6) as readout of TORC1 activity; format: cell-based, Candida albicans; conditions: FIG. 4A
Method: (§1) FIGS. 4A-4D depict data showing that small-molecule inhibition of Pho84 represses TORC1 and hyphal morphogenesis, and potentiates amphotericin B and micafungin antifungal activity. FIG. 4A depicts a Western blot of wild type (wt) (SC5314) cells with (1) vehicle, (2) 100 μM foscarnet (Fos), (3) 200 μM Fos, (4) 400 μM Fos, and strains (5, 7, 9, 11) PHO84+/+(JKC915), (6, 8) pho84−/+ (JKC1583) and (10, 12) pho84−/− (JKC1450), grown in standard SC (7.3 mM Pi) for 60 min, probed for P-S6 and tubulin. FIG. 4B depicts Wt (SC5314) spotted at equidistant points around RPMI agar (0.22 mM KH2PO4, pH 7) containing vehicle, 8 mM phosphonoacetic acid (PAA), or 500 μM Fos, grown at 37° C., and spot edges imaged. Compare with FIG. 7A. Bar 1 mm. FIG. 4C depicts Wt (SC5314) exposed to vehicle, 500 μM Fos, 0.2 μg/ml amphotericin B, and amphotericin B plus Fos; OD600 in SC with 0.5 mM KH2PO4 at 30° C. monitored every 15 minutes. FIG. 4D depicts Wt (SC5314) exposed to vehicle, 500 μM Fos, 25 ng/ml micafungin, and micafungin plus Fos; OD600 in SC with 0.5 mM KH2PO4 at 30° C. monitored every 15 minutes.
Cell harvesting, lysis, Western blotting and densitometry were performed as described in Chowdhury T & Köhler JR (2015) Ribosomal protein S6 phosphorylation is controlled by TOR and modulated by PKA in Candida albicans. Molecular Microbiology 98(2):384-402. At least three biological replicates were obtained for each experiment shown.

[3] = tested on: C. albicans wild type (SC5314); test: Potentiation of antifungals, growth curves (OD600) in SC with 0.5 mM KH2PO4; format: cell-based, Candida albicans; conditions: 500 μM Fos plus 0.2 μg/ml amphotericin B; 8 mM PAA plus 0.25 μg/ml amphotericin B; 30° C.; FIG. 4C, 10D
Method: as §1, with “FIG. 4B depicts Wt (SC5314) spotted at equidistant points around RPMI agar (0.22 mM KH2PO4, pH 7) containing vehicle, 8 mM phosphonoacetic acid (PAA), or 500 μM Fos, grown at 37° C., and spot edges imaged. Compare with FIG. 7A. Bar 1 mm.” left out
FIGS. 10A-10D depict data showing that Foscarnet inhibits Pho84 in competition with Pi. Wild type PHO84/PHO84 (+/+, dark blue) (JKC915) and pho84/pho84 null (−/−, light blue) (JKC1450) cells were exposed to 1 and 4 mM PAA (FIG. 10A) or 200 and 400 μM foscarnet (FIG. 10B), and growth in SC medium with 0.22 mM or 11 mM KH2PO4 at 30° C. was monitored automatically every 15 minutes. […] OD600 was monitored automatically every 15 minutes. […]

[4] = tested on: ROS content of wild type (SC5314) cells; test: DCFDA detectable ROS measurement; format: cell-based, Candida albicans; conditions: wild type cells unexposed to external oxidative stressors; 500 microM foscarnet or 1 mM PAA, 1 hour; FIG. 20C
Method: FIGS. 20A-20D depict data showing that TORC1 activity contributes to ROS management and Sod3 expression. FIG. 20A depicts dichlorodihydrofluorescein diacetate (DCFDA) detectable ROS measurement of strains, (1) PHO84/PHO84 containing vector (JKC1594), (2) pho84/pho84 containing vector (JKC1598), (3) PHO84/PHO84 overexpressing GTR1 (JKC1596), (4) pho84/pho84 overexpressing GTR1 (JKC1600). Cells cultured overnight in YPD were diluted into SC medium (Loflo) with vehicle or 8 ng/ml rapamycin for 1 hour, and fluorescence intensity was determined at excitation-485 nm and emission wavelength 528 nm after staining cells with 50 μM DCFDA. p=0.0252 for ratio of pho84−/− with vector and pho84−/− overexpressing GTR1 versus ratio of wild type with vector and wild type overexpressing GTR1; all cells exposed to vehicle. p=0.0014 for ratio of pho84−/− with vector and pho84−/− overexpressing GTR1 versus ratio of wild type with vector and wild type overexpressing GTR1; all cells exposed to rapamycin. p values calculated using Student's t-test. […] In FIG. 20C, wild type (SC5314) cells were exposed to vehicle, 500 microM foscarnet or 1 mM PAA for 1 hour, and fluorescence intensity was determined at excitation-485 nm and emission wavelength 528 nm after staining cells with 50 μM DCFH-DA. p<0.001 for both 500 microM foscarnet versus vehicle and 1 mM PAA versus vehicle. […]

[5] = tested on: C. albicans wild type, pho84−/− null and reintegrant cells; test: Growth in YPD with oxidative stressors (OD600); format: cell-based, Candida albicans; conditions: 25 μM plumbagin, 40 μM menadione, 40 mM H2O2, FIG. 16A
Method: FIGS. 16A and 16B depict data showing that resistance to oxidative stressors is decreased, and Hog1 phosphorylation is increased in cells lacking PHO84. In FIG. 16A, overnight cultures were washed with normal saline and diluted to YPD with vehicle, 25 μM plumbagin, 40 μM menadione, and 40 mM H2O2 to OD600 0.1. OD600 was monitored every 15 minutes for strains +/+ (PHO84/PHO84), JKC915; −/− (pho84/pho84), JKC1450 and −/−/+(pho84/pho84::PHO84), JKC1588. FIG. 16B depicts a Western blot of cells incubated in YPD containing 5 mM H2O2 for 5 min, 10 min, 20 min, 30 min and 40 min. The membrane was probed for P-Hog1, total Hog1, and loading controls PSTAIRE and Histone H3. Strains, +/+ (PHO84/PHO84), JKC915; −/− (pho84/pho84), JKC1450 and −/−/+ (pho84/pho84::PHO84), JKC1588. FIGS. 16A and 16B show representatives of at least 3 biological replicates.
For cell dilutions spotted onto agar media as previously described (20), saturated overnight cultures were diluted in 5-fold steps from an OD600 of 0.5. For growth curves in liquid media, saturated overnight cultures in YPD were washed once in 0.9% NaCl and diluted to an OD600 of 0.15 in 150 μl medium in flat bottom 96-well dishes. For growth assays including those during drug exposure, OD600 readings were obtained every 15 min in a plate reader and standard deviations of 3 technical replicates were calculated and graphed in Graphpad Prism. Growth during drug exposure was assayed in SC medium. Vehicle for Pho84 inhibitors PAA (Sigma, 284270) and Fos (Santa Cruz Biotechnology, # SC-253593A) was water and for amphotericin B (Sigma, A9528), DMSO. All panels shown represent at least 3 biological replicates.

[6] = tested on: human peripheral blood derived neutrophils incubated with C. albicans; format: cell-based; conditions: neutrophils pretreated with different concentrations of NAC (up to 10 mM); 90 min, M.O.I. 2; dose-dependent; FIG. 12D
Method: To examine whether in fact ROS are responsible for pho84−/− null cells' increased susceptibility to neutrophils' cidal activity, Candida-ingesting neutrophils were treated with the ROS-scavenging compound N-acetyl cysteine (NAC).

| SMILES | C. albicans growth inhibition in dependence on Pho84 [1] | Potentiation of amphotericin B antifungal activity [3] | ROS content (DCFDA detectable) [4] | Growth inhibition of pho84−/− null mutant compared with wild type [5] | further results |
| --- | --- | --- | --- | --- | --- |
| O=C(O)P(=O)(O)O [Fos, phosphonoformic acid] | inhibit C. albicans growth in dependence on the presence of their target Pho84 | potentiate activity of the antifungal amphotericin B | increased the ROS content of wild type cells |  | Rps6 phosphorylation (P-S6) ([2]; heterozygous pho84−/+ cells (JKC1583)): P-S6 was hypersensitive to Fos; Rps6 phosphorylation (P-S6) ([2]; pho84−/− cells lacking the target (JKC1450)): did not further decrease the P-S6 signal; Rps6 phosphorylation (P-S6) ([2]; wild type (SC5314) cells, 100, 200, 400 μM Fos, SC (7.3 mM Pi), 60 min): inhibited Rps6 phosphorylation (PS6) in a dose-dependent manner |
| OO [H2O2, hydrogen peroxide] |  |  |  | inhibited growth of the mutant more strongly than that of the wild type |  |
| CC(=O)N[C@@H](CS)C(=O)O [NAC, N-acetyl cysteine] |  |  |  |  | Hypersensitivity of pho84−/− null cells to neutrophil killing [6]: rescued hypersensitivity of pho84−/− null cells to neutrophil killing |
| O=C(O)CP(=O)(O)O [PAA, phosphonoacetic acid] | inhibit C. albicans growth in dependence on the presence of their target Pho84 | potentiate activity of the antifungal amphotericin B | increased the ROS content of wild type cells |  |  |
| CC1=CC(=O)c2ccccc2C1=O [menadione] |  |  |  | inhibited growth of the mutant more strongly than that of the wild type |  |
| CC1=CC(=O)c2c(O)cccc2C1=O [plumbagin] |  |  |  | inhibited growth of the mutant more strongly than that of the wild type |  |
